system: ApoB secretion, HepG2 cells; test: Quantification of the secretion of ApoB (HepG2 cells, immunoprecipitation, scintillation counting); assay type: cell-based; conditions: Homo sapiens, HepG2, 24 h, 24 hours of incubation
Experimental: C.1. Quantification of the Secretion of ApoB
HepG2 cells were cultured in 24-well plates in Minimal Essential Medium Rega 3 containing 10% fetal calf serum. Rega 3 has the following composition: CaCl2 (264 μg/ml), KCl (400 μg/ml), MgSO4.7H2O (200 μg/ml), NaCl (6800 μg/ml), NaHCO3 (850 μg/ml), NaH2PO4.H2O (158 μg/ml), D-glucose (1000 μg/ml), phenol red (10 μg/ml), L-alanine (8.9 μg/ml), L-arginine HCl (12 μg/ml), L-asparagine.H2O (15 μg/ml), L-aspartic acid (13.3 μg/ml), L-cystine (24 μg/ml), L-glutamic acid (14.7 μg/ml), glycine (7.5 μg/ml), L-histidine.HCl .H2O (42 μg/ml), L-isoleucine (52 μg/ml), L-leucine (52 μg/ml), L-lysine.HCl (72.5 μg/ml), L-methionine (15 μg/ml), L-phenylalanine (32 μg/ml), L-proline (11.5 μg/ml), L-serine (10.5 μg/ml), L-threonine (48 μg/ml), L-tryptophan (10 μg/ml), L-tyrosine (36 μg/ml), L-valine (46 μg/ml), D-Ca pantothenate (1 μg/ml), choline chloride (1 μg/ml), folic acid (1 μg/ml), 1-enositol (2 μg/ml), nicotinamide (1 μg/ml), pyridoxal HCl (1 μg/ml), riboflavin (0.1 μg/ml) and thiamine HCl (1 μg/ml).
At 70% confluency, the medium was changed and the test compound or carrier (dimethylsulfoxide, 0.4% final concentration) was added. After 24 hours of incubation, the medium was transferred to Eppendorf tubes and cleared by centrifugation. A sheep antibody directed against either apo B was added to the supernatant and the mixture was kept at 8° C. for 24 hours. Then, rabbit anti-sheep antibody was added and the immune complex was allowed to precipitate for 24 hours at 8° C. The immunoprecipitate was pelleted by centrifugation for 25 minutes at 1320 g and washed twice with a buffer containing 40 mM 4-morpholinepropanesulfonic acid, 40 mM NaH2PO4, 100 mM NaF, 0.2 mM dithiothreitol, 5 mM ethylenediamine tetraacetic acid, 5 mM ethylenebis (oxyethylenenitrilo) tetraacetic acid, 1% Triton-X-100, 0.5% sodium deoxycholate, 0.1% sodium dodecylsulphate, 0.2 μM leupeptin and 0.2 μM phenylmethylsulphonylfluoride. Radioactivity in the pellet was quantified by liquid scintillation counting.
Resulting IC50 values are enumerated in Table C.1 for a number of compounds No. 1 to No. 123.

Going from CCNC(=O)C(c1ccccc1)N1CCN(c2ccc(NC(=O)c3ccccc3-c3ccc(C(F)(F)F)cc3)c(Cl)c2)CC1 (stereo not drawn) [Co. No. 214] to CCNC(=O)C(c1ccccc1)N1CCN(c2ccc(NC(=O)c3cc(Cl)ccc3-c3ccc(C(F)(F)F)cc3)cc2)CC1 (stereo not drawn) [Co. No. 200], the IC50 rises from under 30 nM to 80.2 nM. The first is the more potent here.

Going from O=C(Nc1ccc(N2CCC(C(C(=O)Nc3ccccc3)c3ccccc3)CC2)cc1)c1cccc2c1Cc1ccccc1-2 (stereo not drawn) [Co. No. 29] to O=C(Nc1ccc(N2CCC(C(C(=O)Nc3ccccc3)c3ccccc3)CC2)cc1)c1ccccc1-c1ccccc1 (stereo not drawn) [Co. No. 30], the IC50 falls from at least 3000 nM to 165 nM.

Going from CCNC(=O)C(c1ccccc1)N1CCN(c2ccc(NC(=O)c3ccccc3-c3ccc(C(F)(F)F)cc3)cc2C(F)(F)F)CC1 (stereo not drawn) [Co. No. 217] to CCNC(=O)C(c1ccccc1)N1CCN(c2ccc(NC(=O)c3c(F)cccc3-c3ccc(C(F)(F)F)cc3)cc2)CC1 (stereo not drawn) [Co. No. 196], the IC50 falls from 2690 nM to 100 nM (27-fold).

COC(=O)C(c1ccccc1)C1CCN(c2ccc(NC(=O)c3ccccc3-c3ccccc3)cc2)CC1 (stereo not drawn) [Co. No. 157] and CC(C)NC(=O)C(c1ccccc1)C1CCN(c2ccc(NC(=O)c3ccccc3-c3ccccc3)cc2)CC1 (stereo not drawn) [Co. No. 22] are within 1.5-fold of each other in IC50: 107 nM for the first, 104 nM for the second.

O=C(Nc1ccc(N2CCC(C(C(=O)NCc3ccccc3)c3ccccc3)CC2)cc1)c1ccccc1-c1cccc(C(F)(F)F)c1 (stereo not drawn) [Co. No. 105] and O=C(Nc1ccc(N2CCC(C(C(=O)Nc3ccccc3)c3ccccc3)CC2)cc1)c1ccccc1-c1cccc(C(F)(F)F)c1 (stereo not drawn) [Co. No. 118] are within 1.5-fold of each other in IC50: 90.6 nM for the first, 127 nM for the second.

COC(=O)C(c1ccccc1)N1CCN(c2ccc(NC(=O)c3cc(OC)c(OC)cc3-c3ccc(C(F)(F)F)cc3)cc2)CC1 (stereo not drawn) [Co. No. 193] and COC(=O)C(c1ccccc1)N1CCN(c2ccc(NC(=O)c3ccc(Cl)cc3-c3ccc(C(F)(F)F)cc3)cc2)CC1 (stereo not drawn) [Co. No. 192] are within 1.5-fold of each other in IC50: 235 nM for the first, 158 nM for the second.

First: O=C(Nc1ccc(C2=CCN(C(C(=O)OCc3ccccc3)c3ccccc3)CC2)cc1)c1ccccc1-c1ccc(C(F)(F)F)cc1 (stereo not drawn) [Co. No. 168]
Second: O=C(Nc1ccc(C2=CCN(C(C(=O)NCc3ccccc3)c3ccccc3)CC2)cc1)c1ccccc1-c1ccccc1 (stereo not drawn) [Co. No. 166]
The IC50 of the first is 3.7-fold higher: 132 nM for the first, 36 nM for the second.

Going from CCCNC(=O)C(c1ccccc1)C1CCN(c2ccc(NC(=O)c3ccccc3-c3ccccc3C)cc2)CC1 (stereo not drawn) [Co. No. 131] to CCCNC(=O)C(c1ccccc1)C1CCN(c2ccc(NC(=O)c3cccc4c3Cc3ccccc3-4)cc2)CC1 (stereo not drawn) [Co. No. 14], the IC50 rises from 417 nM to at least 3000 nM. The first is the more potent here.

Going from C=CCOC(=O)C(c1ccccc1)C1CCN(c2ccc(NC(=O)c3ccccc3-c3ccc(C(F)(F)F)cc3)cc2)CC1 (stereo not drawn) [Co. No. 176] to CC(C)=CCOC(=O)C(c1ccccc1)C1CCN(c2ccc(NC(=O)c3ccccc3-c3ccc(C(F)(F)F)cc3)cc2)CC1 (stereo not drawn) [Co. No. 245], the IC50 rises from 134 nM to 525 nM (3.9-fold).

Going from CC(C)NC(=O)C(c1ccccc1)C1CCN(c2ccc(NC(=O)c3cccc4c3Cc3ccccc3-4)cc2)CC1 (stereo not drawn) [Co. No. 23] to CCNC(=O)C(c1ccccc1)C1CCN(c2ccc(NC(=O)c3ccccc3-c3ccc(F)cc3)cc2)CC1 (stereo not drawn) [Co. No. 92], the IC50 falls from at least 3000 nM to 63.2 nM. The second is the more potent here.

O=C(Nc1ccc(C2CCN(C(C(=O)NC3CC3)c3ccccc3)CC2)cc1)c1ccccc1-c1ccc(C(F)(F)F)cc1 (stereo not drawn) [Co. No. 72] and CCNC(=O)C(c1ccccc1)N1CCC(c2ccc(NC(=O)c3ccccc3-c3ccc(C(F)(F)F)cc3)cc2)CC1 (stereo not drawn) [Co. No. 69, N-[4-[1-[2-(ethylamino)-2-oxo-1-phenylethyl]-4-piperidinyl]phenyl]-4′-(trifluoromethyl)-[1,1′-biphenyl]-2-carboxamide] cannot be ordered by IC50: at most 30 nM for the first, 8.89 nM for the second.

First: COC(=O)C(c1cccc(Cl)c1)N1CCN(c2ccc(NC(=O)c3ccccc3-c3ccc(C(F)(F)F)cc3)cc2)CC1 (stereo not drawn) [Co. No. 260]
Second: COC(=O)C(c1ccc(Br)cc1)N1CCN(c2ccc(NC(=O)c3ccccc3-c3ccc(C(F)(F)F)cc3)cc2)CC1 (stereo not drawn) [Co. No. 261]
The IC50 of the first is lower: under 30 nM for the first, 743 nM for the second.

Compared with O=C(Nc1ccc(N2CCC(C(C(=O)Oc3ccccc3)c3ccccc3)CC2)cc1)c1ccccc1-c1ccc(C(F)(F)F)cc1 (stereo not drawn) [Co. No. 175], CC(C)CCOC(=O)C(c1ccccc1)C1CCN(c2ccc(NC(=O)c3ccccc3-c3ccc(C(F)(F)F)cc3)cc2)CC1 (stereo not drawn) [Co. No. 249] is higher in IC50: under 30 nM for the first, over 3000 nM for the second. The first is the more potent here.

Going from COC(=O)C(c1ccccc1)N1CCN(c2cc(C)c(NC(=O)c3ccccc3-c3ccc(C(F)(F)F)cc3)c(C)c2)CC1 (stereo not drawn) [Co. No. 209] to CCCNC(=O)C(CN1CCN(c2ccc(NC(=O)c3ccccc3-c3ccc(C(F)(F)F)cc3)cc2)CC1)c1ccccc1 (stereo not drawn) [Co. No. 63, N-[4-[4-[3-oxo-2-phenyl-3-(propylamino)propyl]-1-piperazinyl]phenyl]-4′-(trifluoromethyl)-[1,1′-biphenyl]-2-carboxamide], the IC50 rises from 7.96 nM to 122 nM (15-fold).

Going from O=C(Nc1ccc(C2CCN(C(C(=O)NCC(F)(F)F)c3ccccc3)CC2)cc1)c1ccccc1-c1ccc(C(F)(F)F)cc1 (stereo not drawn) [Co. No. 78] to C#CCOC(=O)C(c1ccccc1)N1CCC(c2ccc(NC(=O)c3ccccc3-c3ccc(C(F)(F)F)cc3)cc2)CC1 (stereo not drawn) [Co. No. 225], the IC50 rises from 32.5 nM to 67.6 nM (2.1-fold).

Going from O=C(Nc1ccc(N2CCC(C(C(=O)NCc3ccccc3)c3ccc(F)cc3)CC2)cc1)c1ccccc1-c1ccc(C(F)(F)F)cc1 (stereo not drawn) [Co. No. 254] to Cc1ccc(-c2ccccc2C(=O)Nc2ccc(N3CCC(C(C(=O)NCc4ccccc4)c4ccccc4)CC3)cc2)cc1 (stereo not drawn) [Co. No. 104], the IC50 falls from 28.8 nM to 7.94 nM (3.6-fold). The second is the more potent here.

Compared with O=C(Nc1ccc(N2CCC(C(C(=O)Nc3ccccc3)c3ccccc3)CC2)cc1)c1ccccc1CSc1ccccc1 (stereo not drawn) [Co. No. 31], O=C(Nc1ccc(N2CCC(C(C(=O)Nc3ccccc3)c3ccccc3)CC2)cc1)c1ccccc1COc1ccccc1 (stereo not drawn) [Co. No. 32] is 1.9-fold higher in IC50: 1280 nM for the first, 2390 nM for the second.

Going from O=C(Nc1ccc(N2CCC(C(C(=O)OCc3ccccc3)c3ccccc3)CC2)cc1)c1ccccc1-c1ccccc1 (stereo not drawn) [Co. No. 177] to O=C(Nc1ccc(N2CCC(C(C(=O)Nc3ccccc3)c3ccccc3)CC2)cc1)c1ccccc1-c1ccc2ccccc2c1 (stereo not drawn) [Co. No. 138], the IC50 falls from 261 nM to 99.3 nM (2.6-fold). The second is the more potent here.

CCCNC(=O)C(c1ccccc1)C1CCN(c2ccc(NC(=O)c3ccccc3C(=O)c3ccccc3)cc2)CC1 (stereo not drawn) [Co. No. 15] and CCCNC(=O)C(c1ccccc1)C1CCN(c2ccc(NC(=O)c3ccccc3Oc3ccccc3)cc2)CC1 (stereo not drawn) [Co. No. 19] are within 1.5-fold of each other in IC50: 205 nM for the first, 264 nM for the second.

Compared with CCNC(=O)C(c1ccccc1)N1CCN(c2ccc(NC(=O)c3ccccc3-c3ccccc3)cc2)CC1 (stereo not drawn) [Co. No. 139], CCNC(=O)C(c1ccccc1)N1CCN(c2ccc(NC(=O)c3ccccc3-c3ccc(Cl)cc3)cc2)CC1 (stereo not drawn) [Co. No. 160] is 2.7-fold lower in IC50: 86.1 nM for the first, 32.4 nM for the second. The second is the more potent here.

Compared with C=CCNC(=O)C(c1ccccc1)N1CC=C(c2ccc(NC(=O)c3ccccc3-c3ccccc3)cc2)CC1 (stereo not drawn) [Co. No. 167], O=C(Nc1ccc(C2CCN(C(C(=O)NCc3ccccc3)c3ccccc3)CC2)cc1)c1ccccc1-c1ccccc1 (stereo not drawn) [Co. No. 161] is higher in IC50: under 30 nM for the first, 68.9 nM for the second. The first is the more potent here.

First: CCC(CC)OC(=O)C(c1ccccc1)N1CCC(c2ccc(NC(=O)c3ccccc3-c3ccc(C(F)(F)F)cc3)cc2)CC1 (stereo not drawn) [Co. No. 224]
Second: CC(C)=CCOC(=O)C(c1ccccc1)N1CCC(c2ccc(NC(=O)c3ccccc3-c3ccc(C(F)(F)F)cc3)cc2)CC1 (stereo not drawn) [Co. No. 220]
The IC50 of the first is higher: 557 nM for the first, under 30 nM for the second. The second is the more potent here.

For CCCNC(=O)C(c1ccccc1)C1CCN(c2ccc(NC(=O)c3ccccc3-c3ccc(C(C)(C)C)cc3)cc2)CC1 (stereo not drawn) [Co. No. 132], the IC50 was 50.2 nM.

— patent US8354402B2, “Polyarylcarboxamides useful as lipid lowering agents” (Janssen Pharmaceutica N.V., priority 2000, dated 2013)
